Experimental data as given in publication PMC8080777, “Discovery, optimization, and evaluation of non-bile acid FXR/TGR5 dual agonists” (Scientific Reports, 2021).

Experiments:
PPAR delta = molecular target: T1, PPAR delta (Homo sapiens, UniProt Q03181); assay: Selectivity, NR functional assay; type: cell-based
T1 construct: Eurofine Cerep / Eurofine Panlabs Discovery Services
Text: (§1) Compound 20p was screened against a broad panel of NRs and GPCRs to determine its agonist activity in vitro. […]
(§2) The selectivity tests of compound 20p were investigated by Eurofine Cerep (86600, Celle-Levescault, France) and Eurofine Panlabs Discovery Services (No. 25, Wugong, 6th Road, Wugu District, New Taipai City, Taiwan). Compound binding was caluculated as a % inhibition of the binding of radioactively labeled ligand specific for each target. Cellular agonist effect wa calculated as a % of control response to a known reference agonist for each target and cellular antagonist effect as caluculated as a % inhibition of control reference agonist response for each target at 30 µM of compound 20p.
(§3) 12.3%; CAR -2.5%, PPAR alpha 0.0%; PPAR delta -3.6%; PPAR gamma -1.0%; PXR 4.5%; ER alpha -16.6%; ER beta 17% at 30 µM.

PPAR gamma = molecular target: T2, PPAR gamma (Homo sapiens, UniProt P37231); assay: Selectivity, NR functional assay; type: cell-based
T2 construct: Eurofine Cerep / Eurofine Panlabs Discovery Services
T2 sequence (P37231 whole entry): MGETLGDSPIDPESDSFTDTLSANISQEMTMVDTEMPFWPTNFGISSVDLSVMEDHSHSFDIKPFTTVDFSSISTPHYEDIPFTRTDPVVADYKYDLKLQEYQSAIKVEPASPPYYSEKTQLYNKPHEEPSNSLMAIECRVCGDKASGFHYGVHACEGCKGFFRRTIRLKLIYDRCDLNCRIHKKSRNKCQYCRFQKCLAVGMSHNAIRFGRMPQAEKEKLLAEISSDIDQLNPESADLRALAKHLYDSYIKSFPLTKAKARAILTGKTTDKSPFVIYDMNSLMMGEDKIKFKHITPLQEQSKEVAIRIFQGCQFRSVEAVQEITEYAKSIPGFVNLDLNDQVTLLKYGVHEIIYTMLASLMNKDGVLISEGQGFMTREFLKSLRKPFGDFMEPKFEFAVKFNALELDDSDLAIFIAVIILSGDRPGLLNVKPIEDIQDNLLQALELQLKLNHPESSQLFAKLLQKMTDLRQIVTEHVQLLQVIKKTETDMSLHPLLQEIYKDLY
Text: as §1, §2, §3

CAR = molecular target: T3, CAR (Homo sapiens, UniProt Q14994); assay: Selectivity, NR functional assay; type: cell-based
T3 construct: Eurofine Cerep / Eurofine Panlabs Discovery Services
T3 sequence (Q14994 whole entry): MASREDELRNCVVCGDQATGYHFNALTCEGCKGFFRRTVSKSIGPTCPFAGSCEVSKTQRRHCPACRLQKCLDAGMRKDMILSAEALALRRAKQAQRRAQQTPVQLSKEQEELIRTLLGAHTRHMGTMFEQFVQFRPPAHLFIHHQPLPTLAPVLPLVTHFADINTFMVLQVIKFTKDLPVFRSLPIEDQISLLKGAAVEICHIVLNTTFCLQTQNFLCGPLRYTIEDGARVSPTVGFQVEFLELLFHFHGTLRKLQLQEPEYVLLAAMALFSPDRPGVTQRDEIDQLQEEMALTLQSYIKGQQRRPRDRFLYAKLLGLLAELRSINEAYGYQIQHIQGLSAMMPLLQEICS
Text: as §1, §2, §3

GPCRs and NRs = assay: Broad panel of NRs and GPCRs; settings: in vitro agonist activity
Text: as §1, §2, §3

T1 sequence (Q03181 whole entry): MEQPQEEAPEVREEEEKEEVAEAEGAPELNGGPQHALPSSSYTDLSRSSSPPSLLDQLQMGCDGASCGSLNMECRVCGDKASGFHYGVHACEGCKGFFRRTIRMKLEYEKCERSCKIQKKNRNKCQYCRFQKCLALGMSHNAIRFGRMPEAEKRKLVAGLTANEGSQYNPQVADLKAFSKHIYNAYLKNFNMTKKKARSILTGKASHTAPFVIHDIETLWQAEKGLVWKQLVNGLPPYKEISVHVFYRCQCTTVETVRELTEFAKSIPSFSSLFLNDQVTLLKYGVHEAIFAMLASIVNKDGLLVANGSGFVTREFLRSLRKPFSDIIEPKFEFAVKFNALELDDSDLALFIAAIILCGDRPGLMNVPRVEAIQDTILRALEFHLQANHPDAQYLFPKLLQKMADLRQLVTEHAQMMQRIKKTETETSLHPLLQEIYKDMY

activity at 30 µM (PPAR delta; 30 µM, read-out: PPAR delta agonist effect, % of control response to reference agonist): -3.6% | EC50 (PPAR delta; NR functional assay): > 30 µM | activity at 30 µM (PPAR gamma; 30 µM, read-out: PPAR gamma agonist effect, % of control response to reference agonist): -1% | EC50 (PPAR gamma; NR functional assay): > 30 µM | activity at 30 µM (CAR; 30 µM, read-out: CAR agonist effect, % of control response to reference agonist): -2.5% | EC50 (CAR; NR functional assay): > 30 µM
Structure (SMILES): COc1cc(Cl)cc(N(CC23CCC(c4ccc(OC)c(C#N)c4)(CC2)CC3)C(=O)c2ccncc2C)c1 [Compound 20p]
Off-target activity against GPCRs and NRs (in words) (GPCRs and NRs): no significant off-target activity against GPCRs and NRs
